# Source: patent publication US4673684A, “Amide derivatives and 5-lipoxygenase inhibitors containing the same as an active ingredient” (Terumo Corporation, priority 1984, dated 1987)
# Read-outs that look alike come from different tables or passages of the source.
# Biological target: T1, 5-lipoxygenase (Mus musculus, UniProt P48999)
# T1 construct: The supernatant is used as a 5-lipogenase enzyme solution; endogenous in cells
# T1 sequence (P48999 1-674): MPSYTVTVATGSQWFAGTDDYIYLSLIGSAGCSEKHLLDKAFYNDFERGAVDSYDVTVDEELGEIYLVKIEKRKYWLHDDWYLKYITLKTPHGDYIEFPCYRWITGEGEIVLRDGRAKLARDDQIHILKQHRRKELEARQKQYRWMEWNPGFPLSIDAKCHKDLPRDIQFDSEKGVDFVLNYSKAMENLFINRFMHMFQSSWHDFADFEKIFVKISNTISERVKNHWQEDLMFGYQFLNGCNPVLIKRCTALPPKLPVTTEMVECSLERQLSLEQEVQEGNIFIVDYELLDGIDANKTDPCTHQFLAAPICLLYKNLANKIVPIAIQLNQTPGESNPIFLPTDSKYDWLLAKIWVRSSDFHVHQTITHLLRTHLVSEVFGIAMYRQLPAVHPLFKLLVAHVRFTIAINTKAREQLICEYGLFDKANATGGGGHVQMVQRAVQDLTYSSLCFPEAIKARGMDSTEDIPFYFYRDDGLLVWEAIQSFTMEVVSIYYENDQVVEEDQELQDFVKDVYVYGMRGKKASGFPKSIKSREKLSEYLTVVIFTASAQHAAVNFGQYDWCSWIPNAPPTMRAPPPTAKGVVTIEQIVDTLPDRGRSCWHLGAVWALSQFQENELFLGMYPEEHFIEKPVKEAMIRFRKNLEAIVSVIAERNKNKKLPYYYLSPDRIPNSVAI
# Test: 5-Lipoxygenase-inhibiting Activity (decrease in 5-HETE and LTB4 formed from radiolabelled arachidonic acid, enzyme solution from mouse mastcytoma cells P-815)
# Type: biochemical
# Protocol: Mouse mastcytoma cells P-815 are diluted in a culture solution, containing 90% Eagle Basic Medium (manufactured by Gibco Laboratories) to 5×10^4 cells/ml. The diluted solution is cultivated with shaking in air at 37° C. for 48 hours. Then, the culture solution is cooled with ice and centrifuged to collect the cells. The cells are suspended in a phosphate buffer solution at pH 7.4 at a concentration of 2×10^7 cells/ml. The suspension is treated in a ultrasonic cell disintegrater and then centrifuged at 10,000 r.p.m. for 10 min. The supernatant is used as a 5-lipogenase enzyme solution. In test tubes are placed 20 μl of radiolabelled arachidonic acid ([…]), indomethacin (2×10^-8 mol) and an amide derivative to be tested, respectively. To each of the test tubes are added 0.45 ml of a phosphate buffer solution, 0.45 ml of the above-prepared suspension, 0.45 ml of the above-prepared enzyme solution and 0.1 ml of 8 mM CaCl2 (calcium chloride). The mixture is reacted at 37° C. for 5 min. After cooled with ice, 60 μl of 1N-HCl (hydrochloric acid is added to the reaction mixture, which is then extracted with 8 ml of ethyl acetate. The extract is concentrated, and the concentrate is developed by spotting on a silica gel thin layer plate (Merck 60F 254). Measurement of the inhibitory activity is made by collecting fractions corresponding to lipoxygenase products 5-HETE (5(s)-hydroxy-6,8,11,14-eicosatetraenic acid) and LTB4 (leucotriene B4) and determining the radioactivity by a liquid scintillation counter. The lipoxygenase inhibiting activity is determined by decrease in the amount of the above-mentioned 5-lipoxygenaseproducts. […] 50% inhibitory concentration or 30% inhibitory concentration as indicated in the table means the concentration of an amide derivative required for reducing the amount of the above-mentioned 5-lipoxygenase products (5-HETE and LTB4) to 50% or 30% of the amount when the amount of 5-HETE and LTB4 produced in the absenced of the amide derivative is 100%.
# [1] = 5-HETE and LTB4 formation, mouse mastcytoma P-815 enzyme solution, 37° C., 5 min, pH 7.4, with indomethacin, read-out: 50% Inhibitory concentration IC50
IC50 [1],SMILES,IC50
30 nM,"COc1cc(/C=C/C(=O)N2CCN(CCCOC(c3ccccc3)c3ccccc3)CC2)cc(OC)c1O [Example 80, N-[3-(3,5-dimethoxy-4-hydroxyphenyl) 2-propenoyl]-N'-(3-benzhydroxypropyl)piperazine]",–
4000 nM,COc1cc(/C=C/C=C/C(=O)NCc2c(CO)cnc(C)c2O)ccc1O [Example 17],–
2000 nM,COc1cc(/C=C/C=C/C(=O)N2CCN(CCn3cnc4c3c(=O)n(C)c(=O)n4C)CC2)ccc1O [Example 112],–
80 nM,"O=C(/C=C/C=C/c1ccc(O)c(O)c1)Nc1ccc(O)cc1 [Example 25, N-5-(3,4-dihydroxyphenyl)-2,4-pentadienoylaminophenol]",–
100 nM,"COc1cc(/C=C/C=C/C(=O)NCCCN2CCN(C(c3ccccc3)c3ccc(Cl)cc3)CC2)ccc1O (stereo not shown) [Example 39, N-(p-chlorobenzhydryl)-N'-[3-{5-(3-methoxy-4-hydroxyphenyl)-2,4-pentadienoyl)aminopropyl]piperazine]",–
30 nM,"O=C(/C=C/C=C/c1ccc(O)c(O)c1)N1CCN(CCCOC(c2ccccc2)c2ccccc2)CC1 [Example 85, N-[5,[3,4-hydroxyphenyl]-2,4-pentadienoyl]-N'-(3-benzhydroxypropyl)piperazine]",–
200 nM,"CC/C=C\C/C=C\C/C=C\CCCCCCCC(=O)NCCCCNC(=O)/C=C/C=C/c1ccc(O)c(OC)c1 [Example 19, N-{5-(3-methoxy-4-hydroxyphenyl)-2,4-pentadienoyl}-N'-9,12,15-octadecatrienoyl-1,4-diaminobutane]",–
3000 nM,COc1ccc(/C=C/C=C/C(=O)NCCCCN2CCN(C(c3ccccc3)c3ccccc3)CC2)cc1OC [Example 93],–
7 nM,COc1cc(/C=C/C=C/C(=O)NCCCN2CCC(OC(c3ccccc3)c3ccccc3)CC2)ccc1O [Example 131],–
1000 nM,"CC(=O)NCCCCNC(=O)/C=C/C=C/c1ccc(O)c(O)c1 [Example 20, N-{5-(3,4-dihydroxyphenyl)-2,4-pentadienoyl}-N'-acetyl-1,4-diaminobutane]",–
10000 nM,"COc1ccc(/C=C/C(=O)N2CCN(CCCOC(C)(c3ccccc3)c3ccc(Cl)cc3)CC2)cc1OC (stereo not shown) [Example 104, N-[3-(3,4-dimethoxy)phenyl-2-propenoyl]-N'-[3-[1-phenyl-1-(p-chlorophenyl)ethoxy]propyl]piperazine]",–
900 nM,"CC/C=C\C/C=C\C/C=C\CCCCCCCC(=O)NCCCCNC(=O)/C=C/c1ccc(O)c(OC)c1 [Example 3, N-[3-(3-methoxy-4-hydroxyphenyl)-2-propenoyl]-N'-[9,12,15-octadecatrienoyl]-1,4-diaminobutan]",–
20 nM,"CC/C=C\C/C=C\C/C=C\CCCCCCCC(=O)NCCCCNC(=O)/C=C/C=C/c1ccc(O)c(O)c1 [Example 23, N-5-(3,4-dihydroxyphenyl)2,4-pentadienoyl-N'-9,12,15-octadecatrienoyl-1,4-diaminobutane]",–
90 nM,"COc1cc(/C=C/C=C/C(=O)NCCCOC(c2ccccc2)c2ccccc2)ccc1O [Example 92, 3-[5-[3-methoxy-4-hydroxyphenyl)-2,4-pentadienoyl]aminopropyl benzhydryl ether]",–
30000 nM,"COc1cc(/C=C/C(=O)N2CCN(CCn3cnc4c3c(=O)n(C)c(=O)n4C)CC2)ccc1O [Example 103, 7-[2-[4-[3(3-methoxy-4-hydroxyphenyl)-2-propenoyl]piperazin-1-yl]-ethyl]theophilline]",–
3000 nM,"COc1cc(/C=C/C=C/C(=O)NCc2c(COC(=O)c3ccc(C)cc3)cnc(C)c2O)cc(OC)c1OC(=O)c1ccc(C)cc1 [Example 58, 4-{5-(3,5-dimethoxy-4-toluoxyphenyl)-2,4-pentadienoyl}aminomethyl-3-hydroxy-2methyl-5-toluoxymethylpyridine]",–

IC50 [1],SMILES,IC50
20 nM,"O=C(/C=C/C=C/c1ccc(O)c(O)c1)NCCCCN1CCC(OC(c2ccccc2)c2ccccc2)CC1 [Example 129, 1-[4-[5-(3,4-dihydroxyphenyl)-2,4-pentadienoyl]aminobutyl]-4-benzhydroxypiperidine]",–
4000 nM,"COc1ccc(/C=C/C=C/C(=O)N2CCN(CCCOC(c3ccccc3)c3ccccc3)CC2)cc1OC [Example 94, N-[5-(3,4-dimethoxyphenyl)-2,4-pentadienoyl]-N'-(3-benzhydroxypropyl)piperazine]",–
7 nM,"O=C(/C=C/C=C/c1ccc(O)c(O)c1)NCCN1CCN(C(c2ccccc2)c2ccccc2)CC1 [Example 27, N-benzhydryl-N'-[2-{5-(3,4-dihydroxyphenyl)-2,4-pentadienoyl}aminoethyl]piperazine]",–
90 nM,"COc1cc(/C=C/C=C/C(=O)N2CCN(C(c3ccccc3)c3ccccc3)CC2)ccc1O [Example 15, 1-benzhydryl-4-{5-(3-methoxy-4-hydroxyphenyl)-2,4-pentadienoyl}piperazene]",–
30 nM,"O=C(/C=C/C=C/c1ccc(O)c(O)c1)NCCCCNC(=O)/C=C/C=C/c1ccc(O)c(O)c1 [Example 21, N,N'-di[5-(3,4-dihydroxyphenyl)-2,4-pentadienoyl]-1,4-diaminobutane]",–
40 nM,COc1cc(/C=C/C(=O)NCCCCN2CCN(C(c3ccccc3)c3ccccc3)CC2)ccc1O [Example 68],–
2000 nM,Cn1c(=O)c2c(ncn2CCN2CCN(C(=O)/C=C/C=C/c3ccc(O)c(O)c3)CC2)n(C)c1=O [Example 109],–
–,"O=C(/C=C/C=C/c1ccc(O)c(O)c1)N1CCN(CCOC(c2ccccc2)c2ccccc2)CC1 [Example 84, N-[5-(3,4-dihydroxyphenyl)-2,4-pentadienoyl]--N'-(2-benzhydroxyethyl)piperazine]",30 nM
100000 nM,"COc1cc(/C=C/C=C/C(=O)NCc2c(CO)cnc(C)c2O)cc(OC)c1OC [Example 60, 4-[5-(3,4,5-trimethoxyphenyl)-2,4-pentadienoyl]aminomethyl-3-hydroxy-5-hydroxymethyl-2-methylpyridine]",–
20 nM,"COc1cc(/C=C/C(=O)NCCN2CCC(OC(c3ccccc3)c3ccccc3)CC2)cc(OC)c1O [Example 117, 1-[2-[3-(3,5-dimethoxy-4-hydroxyphenyl)-2-propenoyl]aminoethyl]-4-benzhydroxypiperidine]",–
–,"COc1cc(/C=C/C(=O)N2CCN(CCOC(c3ccccc3)c3ccccc3)CC2)cc(OC)c1O [Example 79, N-[3-(3,5-dimethoxy-4-hydroxyphenyl) -2-propenoyl]-N'-(2-benzhydroxyethyl)piperazine]",40 nM
20 nM,"COc1cc(/C=C/C=C/C(=O)NCCN2CCN(C(c3ccccc3)c3ccc(Cl)cc3)CC2)cc(OC)c1O (stereo not shown) [Example 54, N-(p-chlorobenzhydryl)-N'-[2-{5-(3,5-dimethoxy-4-hydroxyphenyl)-2,4-pentadienoyl}aminoethyl]piperazine]",–
20 nM,"COc1cc(/C=C/C=C/C(=O)NCCCCN2CCC(OC(c3ccccc3)c3ccccc3)CC2)cc(OC)c1O [Example 133, 1-[4-[5-(3,5-dimethoxy-4-hydroxyphenol)-2,4-pentadienoyl]aminobutyl]-4-benzydroxypiperidine]",–
20 nM,"O=C(/C=C/C=C/c1ccc(O)c(O)c1)NCCCCN1CCN(C(c2ccccc2)c2ccc(Cl)cc2)CC1 (stereo not shown) [Example 82, N-(p-chlorobenzhydryl)-N'-[4-[5-(3,4-dihydreoxyphenyl) -2,4-pentadienoyl]aminobutyl]piperazine]",–
100 nM,"O=C(/C=C/C=C/c1ccc(O)c(O)c1)Nc1ccccc1C(=O)O [Example 24, N-5-(3,4-dihydroxyphenyl)-2,4-pentadienoylanthranilic acid]",–
